Test results reported in US20060035847A1, “Glucopyranosyloxyprazole derivatives and use thereof in medicines” (KISSEI PHARMACEUTICAL CO., LTD., priority 2000, published 2006).

Molecular target: T1, human SGLT2 (Homo sapiens, UniProt P31639, I433V)
T1 construct: expressed in transfected cells; host or cells: COS-7 cells (RIKEN CELL BANK RCB0539), transient, electroporation
T1 sequence (P31639 1-672 I433V): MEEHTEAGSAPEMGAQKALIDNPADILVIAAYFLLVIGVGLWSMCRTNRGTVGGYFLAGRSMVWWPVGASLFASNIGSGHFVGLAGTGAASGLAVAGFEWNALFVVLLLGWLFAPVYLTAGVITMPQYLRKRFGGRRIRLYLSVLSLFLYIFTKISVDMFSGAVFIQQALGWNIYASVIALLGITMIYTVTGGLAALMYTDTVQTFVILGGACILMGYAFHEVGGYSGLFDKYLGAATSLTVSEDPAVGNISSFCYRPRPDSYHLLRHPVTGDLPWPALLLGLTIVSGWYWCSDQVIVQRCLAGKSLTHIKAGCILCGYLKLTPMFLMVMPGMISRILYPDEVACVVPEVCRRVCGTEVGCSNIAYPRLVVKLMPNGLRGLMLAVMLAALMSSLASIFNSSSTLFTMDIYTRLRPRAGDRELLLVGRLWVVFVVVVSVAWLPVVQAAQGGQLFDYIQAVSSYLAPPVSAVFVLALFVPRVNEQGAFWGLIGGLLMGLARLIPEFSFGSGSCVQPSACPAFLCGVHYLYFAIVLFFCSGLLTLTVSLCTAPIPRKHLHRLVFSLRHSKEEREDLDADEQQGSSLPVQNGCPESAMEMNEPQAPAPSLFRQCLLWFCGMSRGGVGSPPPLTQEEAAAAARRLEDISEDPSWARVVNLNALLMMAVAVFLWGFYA
Experiment: Assay for inhibitory effect on human SGLT2 activity (methyl-α-D-glucopyranoside uptake in COS-7 cells transiently expressing human SGLT2)
Assay type: cell-based
Details: inhibition of methyl-α-D-glucopyranoside uptake, COS-7 cells expressing human SGLT2, 37° C., 2 hours
Description: Assay for Inhibitory Effect on Human SGLT2 Activity
1) Construction of the Plasmid Vector Expressing Human SGLT2
Preparation of the cDNA library for PCR amplification was performed by reverse transcription of a total RNA deprived from human kidney (Ori gene) with oligo dT as the primer, using SUPERSCRIPT Preamplification System (Gibco-BRL: LIFE TECHNOLOGIES). The DNA fragment coding for human SGLT2 was amplified by the PCR reaction, in which the human kidney cDNA library described above was used as the template and the following oligo nucleotides 0702F and 0712R, presented as sequence number 1 and 2 respectively, were used as the primers. The amplified DNA fragment was ligated into pCR-Blunt (Invitrogen), a vector for cloning, according to standard method of the kit. The Escherichia coli HB101 was transformed according to usual method and then selection of the transformants was performed on the LB agar medium containing 50 μg/mL of kanamycin. After plasmid DNA was extracted and purified from the one of the transformants, amplifying of the DNA fragment coding for human SGLT2 was performed by the PCR reaction, in which the following oligo nucleotides 0714F and 0715R, presented as sequence number 3 and 4 respectively, were used as the primers. The amplified DNA fragment was digested with restriction enzymes, Xho I and Hind III, and then purified with Wizard Purification System (Promega). This purified DNA fragment was inserted at into the corresponding restriction sites of pcDNA3.1 (−) Myc/His—B (Invitrogen), a vector for expressing of fusion protein. The Escherichia coli HB101 was transformed according to usual method and then selection of the transformant was performed on the LB agar medium containing 100 μg/mL of ampicillin. After plasmid DNA was extracted and purified from this transformant, the base sequence of the DNA fragment inserted at the multi-cloning sites of the vector pcDNA3.1 (−) Myc/His—B was analyzed. […] Sequentially, a clone in which valine is substituted for isoleucine-433 was obtained. This plasmid vector expressing human SGLT2 in which the peptide presented as sequence number 5 is fused to the carboxyl terminal alanine residue was designated KL29.
2) Preparation of the Cells Expressing Transiently Human SGLT2
KL29, the plasmid coding human SGLT2, was transfected into COS-7 cells (RIKEN CELL BANK RCB0539) by electroporation. Electroporation was performed with GENE PULSER II (Bio-Rad Laboratories) under the condition: 0.290 kV, 975 μF, 2×10^6 cells of COS-7 cell and 20 μg of KL29 in 500 μL of OPTI-MEM I medium (Gibco-BRL: LIFE TECHNOLOGIES) in the 0.4 cm type cuvette. After the gene transfer, the cells were harvested by centrifugation and resuspended with OPTI-MEM I medium (1 mL/cuvette). To each well in 96-wells plate, 125 μL of this cell suspension was added. After overnight culture at 37° C. under 5% CO2, 125 μL of DMEM medium which is containing 10% of fetal bovine serum (Sanko Jyunyaku), […] sodium penicillin G (Gibco-BRL: LIFE TECHNOLOGIES), 100 μg/mL streptomycin sulfate (Gibco-BRL: LIFE TECHNOLOGIES) was added to each well. These cells were cultured until the next day and then they were used for the measurement of the inhibitory activity against the uptake of methyl-α-D-glucopyranoside.
3) Measurement of the Inhibitory Activity Against the Uptake of methyl-α-D-glucopyranoside
After a test compounds was dissolved in dimethyl sulfoxide and diluted with the uptake buffer (a pH 7.4 buffer containing 140 mM sodium chloride, 2 mM potassium chloride, 1 mM calcium chloride, 1 mM magnesium chloride, 5 mM methyl-α-D-glucopyranoside, 10 mM 2-[4-(2-hydroxyethyl)-1-piperazinyl]ethane sulfonic acid and 5 mM tris(hydroxymethyl)aminomethane), each diluent was used as test sample for measurement of the inhibitory activity. […]

Row | IC50 [nM] | SMILES
1 | 679 | CSc1ccc(Cc2c(O[C@@H]3O[C@H](CO)[C@@H](O)[C@H](O)[C@H]3O)n[nH]c2C(F)(F)F)cc1 [Reference Example 48, 3-(β-D-Glucopyranosyloxy)-4-[(4-methylthiophenyl)methyl]-5-trifluoromethyl-1H-pyrazole]
2 | 415 | COc1ccc(Cc2c(O[C@@H]3O[C@H](CO)[C@@H](O)[C@H](O)[C@H]3O)n[nH]c2C(F)(F)F)cc1 [Reference Example 50, 3-(β-D-Glucopyranosyloxy)-4-[(4-methoxyphenyl)methyl]-5-trifluoromethyl-1H-pyrazole]
3 | 383 | COc1ccc(Cc2c(O[C@@H]3O[C@H](CO)[C@@H](O)[C@H](O)[C@H]3O)n[nH]c2C)cc1 [Reference Example 51, 3-(β-D-Glucopyranosyloxy)-4-[(4-methoxyphenyl)methyl]-5-methyl-1H-pyrazole]
4 | 835 | CSc1ccc(Cc2c(O[C@@H]3O[C@H](CO)[C@@H](O)[C@H](O)[C@H]3O)nn(C)c2C(F)(F)F)cc1 [Reference Example 54, 3-(β-D-Glucopyranosyloxy)-1-methyl-4-[(4-methylthiophenyl)-methyl]-5-trifluoromethylpyrazole]
5 | 280 | Cc1ccc(Cc2c(O[C@@H]3O[C@H](CO)[C@@H](O)[C@H](O)[C@H]3O)n[nH]c2C)cc1 [Reference Example 57, 3-(β-D-Glucopyranosyloxy)-5-methyl-4-[(4-methylphenyl)-methyl]-1H-pyrazole]
6 | 190 | CCc1ccc(Cc2c(O[C@@H]3O[C@H](CO)[C@@H](O)[C@H](O)[C@H]3O)n[nH]c2C)cc1 [Reference Example 58, 4-[(4-Ethylphenyl)methyl]-3-(β-D-glucopyranosyloxy)-5-methyl-1H-pyrazole]
7 | 634 | CCc1ccc(Cc2c(O[C@@H]3O[C@H](CO)[C@@H](O)[C@H](O)[C@H]3O)n[nH]c2C(F)(F)F)cc1 [Reference Example 60, 4-[(4-Ethylphenyl)methyl]-3-(β-D-glucopyranosyloxy)-5-trifluoromethyl-1H-pyrazole]

Continued, molecule first:

Row | SMILES | IC50 [nM]
8 | Cc1[nH]nc(O[C@@H]2O[C@H](CO)[C@@H](O)[C@H](O)[C@H]2O)c1Cc1ccc(OC(C)C)cc1 [Reference Example 37, 3-(β-D-Glucopyranosyloxy)-4-[(4-isopropoxyphenyl)methyl]-5-methyl-1H-pyrazole] | 181
9 | CCCc1ccc(Cc2c(O[C@@H]3O[C@H](CO)[C@@H](O)[C@H](O)[C@H]3O)n[nH]c2C)cc1 [Reference Example 38, 3-(β-D-Glucopyranosyloxy)-5-methyl-4-[(4-propylphenyl)-methyl]-1H-pyrazole] | 441
10 | CCCOc1ccc(Cc2c(O[C@@H]3O[C@H](CO)[C@@H](O)[C@H](O)[C@H]3O)n[nH]c2C)cc1 [Reference Example 40, 3-(β-D-Glucopyranosyloxy)-5-methyl-4-[(4-propoxyphenyl)-methyl]-1H-pyrazole] | 702
11 | CCOc1ccc(Cc2c(O[C@@H]3O[C@H](CO)[C@@H](O)[C@H](O)[C@H]3O)n[nH]c2C)cc1 [Reference Example 41, 4-[(4-Ethoxyphenyl)methyl]-3-(β-D-glucopyranosyloxy)-5-methyl-1H-pyrazole] | 185
12 | CSc1ccc(Cc2c(O[C@@H]3O[C@H](CO)[C@@H](O)[C@H](O)[C@H]3O)n[nH]c2C)cc1 [Reference Example 45, 3-(β-D-Glucopyranosyloxy)-5-methyl-4-[(4-methylthiophenyl)-methyl]-1H-pyrazole] | 84
13 | CCc1[nH]nc(O[C@@H]2O[C@H](CO)[C@@H](O)[C@H](O)[C@H]2O)c1Cc1ccc(SC)cc1 [Reference Example 46, 5-Ethyl-3-(β-D-glucopyranosyloxy)-4-[(4-methylthiophenyl)-methyl]-1H-pyrazole] | 509
14 | Cc1[nH]nc(O[C@@H]2O[C@H](CO)[C@@H](O)[C@H](O)[C@H]2O)c1Cc1ccc(C(C)C)cc1 [Reference Example 47, 3-(β-D-Glucopyranosyloxy)-4-[(4-isopropylphenyl)methyl]-5-methyl-1H-pyrazole] | 441
